From patent US8975232B2, “Macrocyclic kinase inhibitors and uses thereof” (President and Fellows of Harvard College, priority 2010, dated 2015)
Like-named read-outs stand apart in the source and are kept apart here.

Columns and labels:
HCK = HCK (Homo sapiens, UniProt P08631); assay: Continuous spectrophotometric kinase activity assay; assay type: biochemical; parameters: Kinase domain constructs of human c-Abl (residues 229-512), chicken c-Src (residues 251-533 and residues 83-533), murine Lck (residues 227-509), and human Hck (residues 166-445); made in house
Sequence of HCK (P08631 262-515 limits assumed): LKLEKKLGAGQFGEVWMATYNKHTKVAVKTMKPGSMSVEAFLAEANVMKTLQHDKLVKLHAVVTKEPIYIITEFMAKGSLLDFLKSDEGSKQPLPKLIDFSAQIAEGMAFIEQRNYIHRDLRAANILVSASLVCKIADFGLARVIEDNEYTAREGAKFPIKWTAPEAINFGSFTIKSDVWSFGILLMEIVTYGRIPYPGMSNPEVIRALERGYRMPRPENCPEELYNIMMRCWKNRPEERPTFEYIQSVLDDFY

Src Thr338Ile = assay: Inhibition of Src gatekeeper mutant; assay type: biochemical, chicken
Excerpt: Kinase domain constructs of human c-Abl (residues 229-512), chicken c-Src (residues 251-533 and residues 83-533), murine Lck (residues 227-509), and human Hck (residues 166-445) were expressed as previously described (Seeliger, Young et al. 2005; Seeliger, Nagar et al. 2007; the entire contents of each of which are incorporated by reference herein). Mutations were introduced into chicken c-Src (residues 251-533) (T338I, C277Q, L297M) by site-directed mutagenesis and verified by DNA sequencing.
For the FRET-based endpoint assay, kinase assays were performed using Invitrogen's Z′-LYTE kinase assay using the Tyr 02 substrate peptide (based upon the optimal Abl substrate peptide […]) according to the manufacturer's instructions. Assays were performed at near KM ATP concentrations for full-length c-Src and full-length c-Src T338I-50 μM and 7 μM, respectively.

BLK = BLK (Homo sapiens, UniProt P51451); assay: SelectScreen kinase profiling; assay type: biochemical; conditions: 5 μM
Sequence of BLK (P51451 whole entry): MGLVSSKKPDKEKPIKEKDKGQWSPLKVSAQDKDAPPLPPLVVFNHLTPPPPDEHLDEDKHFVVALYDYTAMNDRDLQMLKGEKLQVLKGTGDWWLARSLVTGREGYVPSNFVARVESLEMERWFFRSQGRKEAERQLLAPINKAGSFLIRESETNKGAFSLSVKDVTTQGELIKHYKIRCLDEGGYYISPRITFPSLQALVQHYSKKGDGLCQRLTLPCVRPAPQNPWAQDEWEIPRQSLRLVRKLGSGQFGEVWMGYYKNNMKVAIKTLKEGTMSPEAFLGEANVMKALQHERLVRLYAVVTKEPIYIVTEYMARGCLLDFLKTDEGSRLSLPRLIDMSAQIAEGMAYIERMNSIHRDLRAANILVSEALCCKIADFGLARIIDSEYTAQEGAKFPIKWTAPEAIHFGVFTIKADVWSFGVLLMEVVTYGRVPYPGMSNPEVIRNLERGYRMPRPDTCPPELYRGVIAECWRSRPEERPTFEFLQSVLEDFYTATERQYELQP
Description: (§1) Src IC50 determinations and single-point inhibition measurements were performed using Invitrogen's Z′-LYTE Tyr 02 assay kit according to the manufacturer's protocols. All kinase assays were performed at ATP concentrations near KM,ATP values, except where noted otherwise. Active human Src kinase was obtained from Millipore. For kinome profiling and IC50 determinations against non-Src kinases, compounds were submitted to Invitrogen's SelectScreen Kinase Profiling Service.

ROCK1 = ROCK1 (Homo sapiens, UniProt Q13464); assay: SelectScreen kinase profiling; assay type: biochemical; conditions: 5 μM
Description: as §1

ABL1 = ABL1 (Homo sapiens, UniProt P00519); assay: SelectScreen kinase profiling; assay type: biochemical; conditions: ABL1; 5 μM
Sequence of ABL1 (P00519 whole entry): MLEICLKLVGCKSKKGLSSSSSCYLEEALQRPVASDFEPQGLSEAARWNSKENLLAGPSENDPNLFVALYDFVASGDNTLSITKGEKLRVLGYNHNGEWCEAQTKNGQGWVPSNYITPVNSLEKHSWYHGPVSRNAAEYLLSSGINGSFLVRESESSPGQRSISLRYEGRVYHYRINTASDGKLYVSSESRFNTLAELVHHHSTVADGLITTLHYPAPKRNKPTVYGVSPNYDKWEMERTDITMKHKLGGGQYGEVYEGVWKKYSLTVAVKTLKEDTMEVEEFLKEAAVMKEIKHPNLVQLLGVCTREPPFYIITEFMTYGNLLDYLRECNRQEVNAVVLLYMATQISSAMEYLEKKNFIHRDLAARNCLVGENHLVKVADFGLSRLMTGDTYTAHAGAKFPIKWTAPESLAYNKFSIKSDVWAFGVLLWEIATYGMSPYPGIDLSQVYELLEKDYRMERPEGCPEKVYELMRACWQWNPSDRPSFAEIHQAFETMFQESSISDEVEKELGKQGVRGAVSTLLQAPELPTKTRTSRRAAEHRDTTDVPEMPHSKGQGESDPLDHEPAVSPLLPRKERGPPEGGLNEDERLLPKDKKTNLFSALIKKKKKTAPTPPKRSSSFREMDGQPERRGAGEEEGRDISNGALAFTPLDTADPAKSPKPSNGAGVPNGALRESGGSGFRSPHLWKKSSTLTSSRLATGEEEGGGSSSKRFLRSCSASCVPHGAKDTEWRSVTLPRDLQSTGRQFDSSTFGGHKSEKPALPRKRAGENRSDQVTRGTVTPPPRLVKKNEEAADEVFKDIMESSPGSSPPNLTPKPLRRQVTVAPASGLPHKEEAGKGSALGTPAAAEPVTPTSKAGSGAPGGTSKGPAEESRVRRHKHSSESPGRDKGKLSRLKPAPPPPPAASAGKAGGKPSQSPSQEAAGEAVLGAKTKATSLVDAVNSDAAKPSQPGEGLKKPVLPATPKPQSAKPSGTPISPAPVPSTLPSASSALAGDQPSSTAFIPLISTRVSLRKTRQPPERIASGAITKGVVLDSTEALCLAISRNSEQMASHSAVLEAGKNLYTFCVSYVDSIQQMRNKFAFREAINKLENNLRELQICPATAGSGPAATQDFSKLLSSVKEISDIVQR
Description: as §1

MAP2K6 (MKK6) = MAP2K6 (MKK6) (Homo sapiens, UniProt P52564); assay: SelectScreen kinase profiling; assay type: biochemical; conditions: 5 μM
Sequence of MAP2K6 (MKK6) (P52564 whole entry): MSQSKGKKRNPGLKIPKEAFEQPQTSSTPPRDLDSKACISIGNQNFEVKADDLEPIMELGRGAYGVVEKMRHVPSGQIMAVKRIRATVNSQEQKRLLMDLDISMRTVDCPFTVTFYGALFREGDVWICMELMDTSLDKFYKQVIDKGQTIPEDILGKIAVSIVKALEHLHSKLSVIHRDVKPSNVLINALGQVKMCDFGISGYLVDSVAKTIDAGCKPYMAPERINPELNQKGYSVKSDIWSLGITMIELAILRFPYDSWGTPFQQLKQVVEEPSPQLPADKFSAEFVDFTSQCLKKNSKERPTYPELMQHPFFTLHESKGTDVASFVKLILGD
Description: as §1

Src kinase domain = target: T1, Src kinase domain (Gallus gallus, UniProt P00523); assay: Fluorescence anisotropy binding assay; parameters: species or system chicken; conditions: fluorescein-labeled macrocycle, read-out: dissociation constant (KD)
T1 construct: chicken c-Src (residues 251-533 and residues 83-533); made in house
Description: The change in fluorescence anisotropy of fluorescein-labeled MC1, MC4 and MC9 at 518 nm upon excitation at 492 nm was monitored with a HORIBA Jobin Yvon FluoroMax-4 (Edison, N.J.) spectrofluorimeter. Kinase was titrated to 0.5 μM of the fluorescently labeled macrocycle in 100 mM Tris pH 8.0, 10 mM MgCl2 at 25° C. After equilibration, the increase in the fluorescence anisotropy of the fluorescently labeled ligand was recorded and fitted against a quadratic binding equation in Kaleidagraph (Synergy Software, Reading Pa.) to yield the dissociation constant KD.
To clarify the inhibitory mechanism of the compounds further, the binding affinity of fluorescently labeled MC1, MC4, and MC9 to Src kinase domain was determined in a fluorescence anisotropy assay (FIG. 21).

Abl = target: T2, Abl (Homo sapiens, UniProt P00519); assay: Continuous spectrophotometric kinase activity assay; assay type: biochemical
T2 construct: human c-Abl (residues 229-512); made in house
T2 sequence (P00519 229-512): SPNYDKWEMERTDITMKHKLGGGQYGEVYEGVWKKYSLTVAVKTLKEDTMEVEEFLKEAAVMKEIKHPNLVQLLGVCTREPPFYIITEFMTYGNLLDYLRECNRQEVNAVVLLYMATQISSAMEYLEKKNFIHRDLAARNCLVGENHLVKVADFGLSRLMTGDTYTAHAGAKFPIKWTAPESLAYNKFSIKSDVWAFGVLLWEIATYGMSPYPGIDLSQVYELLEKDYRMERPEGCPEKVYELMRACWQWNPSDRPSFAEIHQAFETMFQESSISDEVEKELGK

[1] = target: T3, Src kinase domain (chicken c-Src residues 251-533) (Gallus gallus, UniProt P00523); assay: as above; assay type: biochemical; conditions: Src kinase domain
T3 construct: chicken c-Src (residues 251-533 and residues 83-533); made in house

[2] = tested on: panel of 44 human kinases; assay: Kinase selectivity panel at 5 μM, Invitrogen SelectScreen; assay type: biochemical; conditions: includes all nine Src-family kinases
Description: as §1

MAPKAPK2 (MK2) = MAPKAPK2 (MK2) (Homo sapiens, UniProt P49137); assay: Z'-LYTE kinase assay (Invitrogen SelectScreen); assay type: biochemical; conditions: MAPKAPK2; 5 μM
Sequence of MAPKAPK2 (MK2) (P49137 whole entry): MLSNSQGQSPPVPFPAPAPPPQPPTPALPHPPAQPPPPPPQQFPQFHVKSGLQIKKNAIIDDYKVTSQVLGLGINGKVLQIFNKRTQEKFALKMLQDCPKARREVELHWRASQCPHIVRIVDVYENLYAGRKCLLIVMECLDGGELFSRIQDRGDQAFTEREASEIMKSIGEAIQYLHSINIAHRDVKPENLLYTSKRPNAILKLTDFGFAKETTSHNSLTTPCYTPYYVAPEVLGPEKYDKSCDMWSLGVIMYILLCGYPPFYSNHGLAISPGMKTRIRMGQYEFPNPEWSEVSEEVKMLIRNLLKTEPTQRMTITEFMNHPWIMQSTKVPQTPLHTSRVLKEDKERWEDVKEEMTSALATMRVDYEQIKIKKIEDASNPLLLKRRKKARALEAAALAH
Excerpt: (§2) Macrocycles A10-B1-C11-D5 and A10-B8-C11-D5 were enriched 2- to 6-fold upon selection for binding Akt3, MAPKAPK2, Pim1, and VEGFR2 (FIG. 6). These two macrocycles are structurally similar, sharing nitrophenylalanine (A10) and cyclohexylstatine (C11) building blocks as well as the same lysine scaffold (D5), and differ only at the B building block with either furylalanine (B1) or cyclohexylalanine (B8) (FIG. 6). For assay purposes, the macrocycles were synthesized with C-terminal PEG-diamine linkers to aid solubility, and then tested for the ability to inhibit Akt3, MAPKAPK2, Pim1 and VEGFR2.
as §1

VEGFR2 (KDR) = VEGFR2 (KDR) (Homo sapiens, UniProt P35968); assay: Z'-LYTE kinase assay (Invitrogen SelectScreen); assay type: biochemical; conditions: KDR (VEGFR2); 5 μM
Sequence of VEGFR2 (KDR) (P35968 20-1356): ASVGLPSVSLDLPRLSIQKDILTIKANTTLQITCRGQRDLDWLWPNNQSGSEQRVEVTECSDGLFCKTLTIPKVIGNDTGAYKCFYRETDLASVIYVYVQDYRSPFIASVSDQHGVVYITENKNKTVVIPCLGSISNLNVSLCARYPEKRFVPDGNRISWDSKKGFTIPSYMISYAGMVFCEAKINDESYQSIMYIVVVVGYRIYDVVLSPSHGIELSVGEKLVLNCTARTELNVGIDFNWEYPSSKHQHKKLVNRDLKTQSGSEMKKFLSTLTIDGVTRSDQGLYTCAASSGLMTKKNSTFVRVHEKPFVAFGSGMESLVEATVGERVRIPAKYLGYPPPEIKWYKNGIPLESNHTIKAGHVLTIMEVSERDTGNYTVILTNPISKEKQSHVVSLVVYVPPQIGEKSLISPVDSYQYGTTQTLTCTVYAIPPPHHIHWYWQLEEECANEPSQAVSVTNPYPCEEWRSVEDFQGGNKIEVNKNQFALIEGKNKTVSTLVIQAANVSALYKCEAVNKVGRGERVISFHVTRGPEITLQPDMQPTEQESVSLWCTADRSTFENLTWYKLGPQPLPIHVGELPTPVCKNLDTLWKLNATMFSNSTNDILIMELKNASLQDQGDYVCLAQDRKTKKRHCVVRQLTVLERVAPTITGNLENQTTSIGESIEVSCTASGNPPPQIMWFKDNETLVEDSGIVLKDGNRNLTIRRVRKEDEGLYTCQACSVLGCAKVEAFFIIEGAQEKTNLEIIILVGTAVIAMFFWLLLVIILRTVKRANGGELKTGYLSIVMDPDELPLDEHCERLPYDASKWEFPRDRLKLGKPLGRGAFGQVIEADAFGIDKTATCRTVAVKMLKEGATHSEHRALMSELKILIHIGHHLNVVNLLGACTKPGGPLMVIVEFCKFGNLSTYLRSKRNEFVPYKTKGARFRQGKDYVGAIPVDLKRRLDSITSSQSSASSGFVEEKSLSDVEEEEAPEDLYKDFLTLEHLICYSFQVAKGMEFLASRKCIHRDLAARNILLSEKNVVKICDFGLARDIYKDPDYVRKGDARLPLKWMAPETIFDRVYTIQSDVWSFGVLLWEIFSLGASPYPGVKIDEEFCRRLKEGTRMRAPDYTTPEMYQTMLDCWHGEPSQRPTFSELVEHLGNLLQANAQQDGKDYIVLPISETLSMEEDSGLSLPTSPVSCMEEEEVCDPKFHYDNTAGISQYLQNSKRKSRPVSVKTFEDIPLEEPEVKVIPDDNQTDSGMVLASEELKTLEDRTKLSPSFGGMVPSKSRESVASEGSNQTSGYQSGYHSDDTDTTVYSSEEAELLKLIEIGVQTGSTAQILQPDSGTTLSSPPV
Excerpt: as §2, §1

Akt3 = Akt3 (Homo sapiens, UniProt Q9Y243); assay: Z'-LYTE kinase assay (Invitrogen SelectScreen); assay type: biochemical; conditions: AKT3 (PKB gamma); 5 μM
Sequence of Akt3 (Q9Y243 whole entry): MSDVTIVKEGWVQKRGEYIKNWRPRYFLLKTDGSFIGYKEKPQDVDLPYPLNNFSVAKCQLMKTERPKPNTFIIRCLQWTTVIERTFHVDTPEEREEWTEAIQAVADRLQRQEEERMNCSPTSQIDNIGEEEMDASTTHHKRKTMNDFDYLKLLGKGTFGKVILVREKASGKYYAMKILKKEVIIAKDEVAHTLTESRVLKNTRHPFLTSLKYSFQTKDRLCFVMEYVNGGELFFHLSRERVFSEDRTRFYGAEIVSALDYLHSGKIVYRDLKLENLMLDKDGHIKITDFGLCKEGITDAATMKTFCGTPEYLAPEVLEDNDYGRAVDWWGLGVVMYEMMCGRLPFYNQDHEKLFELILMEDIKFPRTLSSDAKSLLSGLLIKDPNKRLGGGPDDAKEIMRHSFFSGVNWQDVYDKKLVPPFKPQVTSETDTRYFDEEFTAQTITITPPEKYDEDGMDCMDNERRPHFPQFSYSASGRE
Excerpt: as §2, §1

Pim1 = Pim1 (Homo sapiens, UniProt P11309); assay: Z'-LYTE kinase assay (Invitrogen SelectScreen); assay type: biochemical; conditions: PIM1; 5 μM
Sequence of Pim1 (P11309 whole entry): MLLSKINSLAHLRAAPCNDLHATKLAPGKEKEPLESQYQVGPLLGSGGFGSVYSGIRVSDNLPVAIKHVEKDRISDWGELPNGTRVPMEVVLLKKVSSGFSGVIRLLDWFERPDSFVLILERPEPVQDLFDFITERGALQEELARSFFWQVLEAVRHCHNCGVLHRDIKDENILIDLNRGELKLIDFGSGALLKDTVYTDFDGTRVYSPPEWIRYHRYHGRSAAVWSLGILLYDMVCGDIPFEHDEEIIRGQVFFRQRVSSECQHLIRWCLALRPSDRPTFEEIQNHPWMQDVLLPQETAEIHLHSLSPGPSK
Excerpt: as §2, §1

[3] = 5 μM ATP, 100 μM Src optimal peptide
[4] = 5 μM ATP, 300 μM Src optimal peptide
[5] = 250 μM ATP, 300 μM Src optimal peptide

## NC(=O)[C@@H]1CCCNC(=O)[C@H](Cc2ccc([N+](=O)[O-])cc2)NC(=O)[C@H](Cc2ccco2)NC(=O)[C@H](CC2CC2)NC(=O)/C=C/C(=O)N1 [trans-A10-B1-C5-D6]
HCK; [3]
  IC50: > 100 µM
HCK; [4]
  IC50: > 100 µM
HCK; [5]
  IC50: > 100 µM
Src Thr338Ile
  inhibition of Src Thr338Ile gatekeeper mutant (in words): retained their inhibition potency
BLK
  % inhibition: 10%
ROCK1
  % inhibition: 12%
ABL1
  % inhibition: 18%
MAP2K6 (MKK6)
  % inhibition: −1%
Src kinase domain; 250 μM AMP-PNP
  Kd: 1.7 µM
Src kinase domain; no competitor
  Kd: 0.3 µM
Abl; [3]
  IC50: > 100 µM
Abl; [4]
  IC50: > 100 µM
Abl; [5]
  IC50: > 100 µM
[1]; [3]
  IC50: 11 µM
[1]; [5]
  IC50: 21 µM
[2]
  off-target inhibition in kinase panel (in words): no significant off-target inhibition
MAPKAPK2 (MK2)
  % inhibition: −3%
VEGFR2 (KDR)
  % inhibition: 7%
Akt3
  % inhibition: 11%
Pim1
  % inhibition: −3%
